Columns and labels:
[1] = system: serum Total Testosterone, LH, FSH in women with PCOS; experiment: Phase 2a clinical trial, PolyCystic Ovary Syndrome (PCOS); format: in vivo, human
Description: Clinical Evaluation of Compound n^o 5 for the Treatment of PolyCystic Ovary Syndrome (PCOS)
Objectives: The study objectives are to evaluate the effect of compound n^o 5 on the serum levels of Total Testosterone (TT), Luteinizing Hormone (LH), Follicle Stimulating Hormone (FSH) and LH:FSH ratio after 12 weeks of treatment.
Design and Setting: The Phase 2a clinical trial was conducted in 48 patients, divided over 2 treatment groups of 24 patients each. One group received placebo while the other group received 180 mg of compound n^o 5 once daily (QD) for a period of 12 weeks. The Phase 2a trial was double blind and randomized. […] The study was conducted on an ambulatory basis where patients were asked to visit the clinical site on the first day of dosing and at weeks 3, 6, 9 and 12 during the treatment period with a follow-up visit 2-3 weeks after conclusion of dosing.
Blood draws for LH, FSH and TT were taken every visit between 2 and 8 hours after drug intake (baseline and week 3-6-12). At week 9 the blood samples were taken in the morning before drug intake (i.e. at trough PK concentrations for compound n^o 5). These blood draws were the basis for assessing the primary (TT) and secondary (LH, FSH, LH:FSH ratio) endpoints. The primary endpoint of Total Testosterone was measured according to GLP using an LC-MS/MS method.
PCOS is typically characterized by excessive ovarian androgen production, failure of ovulation, and slightly enlarged ovaries with numerous peripheral small follicles that appear as cysts. The disorder is commonly accompanied by infertility. Typically, the clinical features of PCOS are associated with hypersecretion of LH and androgens (TT) but with normal serum concentrations of FSH hormone. Laboratory examinations reveal elevated TT levels in about 50% of the patients, accompanied by an elevated LH:FSH ratio (>2) due to the imbalanced secretion of both hormones (a ratio of 1 is considered normal).

human NK-2 receptor = human NK-2 receptor (Homo sapiens (Human), UniProt P21452); experiment: Selectivity assay: [125I]-Neurokinin A binding, human NK-2 receptor; conditions: 0.1 nM [125I]-Neurokinin A, CHO membranes; read-out: hNK-2 (Ki)
Chain of human NK-2 receptor (P21452 whole entry): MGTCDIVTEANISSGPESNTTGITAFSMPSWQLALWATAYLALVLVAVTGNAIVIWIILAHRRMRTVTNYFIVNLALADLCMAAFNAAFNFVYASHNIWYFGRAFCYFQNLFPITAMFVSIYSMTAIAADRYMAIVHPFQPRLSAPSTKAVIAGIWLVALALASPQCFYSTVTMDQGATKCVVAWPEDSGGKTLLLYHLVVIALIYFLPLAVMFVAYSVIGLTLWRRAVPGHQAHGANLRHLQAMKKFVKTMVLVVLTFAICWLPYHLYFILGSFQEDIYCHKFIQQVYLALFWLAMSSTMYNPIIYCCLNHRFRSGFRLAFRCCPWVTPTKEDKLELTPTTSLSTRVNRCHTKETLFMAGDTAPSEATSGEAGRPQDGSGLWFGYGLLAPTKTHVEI
Description: The affinity of compounds of the invention for the NK-2 receptor was evaluated in CHO recombinant cells which express the human NK-2 receptor. Membrane suspensions were prepared from these cells. […] Binding assays were performed in a 25 mM HEPES/1 mM CaCl2)/5 mM MgCl2/0.5% BSA/10 μg/ml saponin, at pH 7.4. […] The radioactivity retained on the filters was measured by using the TopCount-NXT reader (Packard).

[2] = system: body temperature (pyrogenic response to feeding); experiment: Thermoregulation in OVX ewes; format: in vivo, ewe; conditions: 1 mg/kg intravenous bolus
Text: In Vivo Assay in OVX Ewes-Activity in Thermoregulation Experimental Methods: Evaluation of Thermoregulation in OVX Ewe […] After 4 months recovery, animals were acclimatised to housing in single pens for a period of 7 days with ad libitum access to water and […] lucerne hay. One day prior to experimentation, the animals received a jugular vein cannula ([…], Tuta Laboratories, Lane Cove, Australia). The cannulo were kept patent with heparinised saline. On the day of the experiment, compound n^o 5 of the present invention was formulated in physiological saline with 9% 2-hydroxypropyl-β-cyclodextrin at a concentration of 2 mg/mL. […] Animals were fed at 12 h00. Rectal temperatures were monitored with a probe at hourly intervals throughout the experiment, starting at 7 h40 and concluding at 15 h40.

plasma estradiol = experiment: Estradiol circulating level in female rats; format: in vivo, rat; conditions: 10 mg/kg b.i.d. oral, 10 days, FIG. 3
Description: Effect of compounds of the invention on Estradiol circulating level in female rats The aim of this study was to evaluate the effect of compounds of the invention on plasma estradiol levels following oral administration at 10 mg/kg (b.i.d.) for a period of 10 days in female rats.
Briefly the experimental methods used for this study were as follows: Two groups of adult, female rats (Sprague-Dawley, ˜320 g) were treated in-phase with their individual estrous cycles. Thus, treatment was started in the proestrus phase (coincident with peak estradiol levels, as shown on Day 1 in FIG. 3) and rats were dosed twice daily (˜9 h30 and 17 h30) by oral administration either with a compound of the invention at 10 mg/kg or with the vehicle for the control group. Compounds of the invention were prepared in a dose formulation of pyrogen-free water with 0.5% methylcellulose. Estradiol levels were determined for all groups by ELISA performed on plasma samples derived from blood collections taken at 30 minutes before the daily, 9 h30 test article administration on all days presented in FIG. 3.

[3] = system: circulating levels of luteinizing hormone (LH); experiment: Castrated male rat model, circulating luteinizing hormone (LH); format: in vivo; conditions: single oral dose less than or equal to 30 mg/kg, p<0.05
Description: Castrated Male Rat Model to Assess the Effect of Compound of Invention on Circulating Levels of Luteinizing Hormone (LH)
The effect of compounds of the invention to inhibit luteinizing hormone (LH) secretion is determined by the following biological studies.
In humans and rodents, castration is well-precedented to permit heightened, persistent GnRH signaling and consequent elevation of circulating LH. Thus, a castrated rat model is used to provide a broad index for measurement of LH inhibition as a marker of test compound inhibition of the GnRH signaling pathway.
Castrated adult male Sprague-Dawley (SD) rats (150-175 g,) were purchased from Janvier (St Berthevin, France). All animals were housed 2 per cage in a temperature-controlled room (22±2° C.) and 50±5% relative humidity with a 12 hour/12 hour light/dark cycles (lights off at […]). The animals were allowed 3 weeks of postoperative recovery prior to study. Animals were handled on a daily basis. Standard diet and tap water were provided ad libitum. Animal cage litters were changed once a week. On the study day, animals were acclimated to the procedure room for a period of one hour prior to the initiation of the experiment.
Compounds of the invention were formulated in 0.5% methyl cellulose.
After basal sampling (TO) a single dose of compounds of the invention or vehicle was administrated orally to rats. Blood samples were then collected at several time points post dosing (45, 90, 150, 300 and 420 minutes). Blood samples were obtained via tail vein bleed, drawn into EDTA-containing tubes and centrifuged immediately. Plasma samples were collected and stored in a −80° C. freezer until assayed. Serum LH levels were determined using radioimmunoassay kit from RIAZEN—Rat L H, Zentech (Liege, Belgium). Baseline was defined as the initial basal blood sample.

For `Cc1nsc(-c2nnc3n2CCN(C(=O)c2ccc(F)cc2)[C@@H]3C)n1` [Compound 5, (R)-(4-fluorophenyl)(8-methyl-3-(3-methyl-1,2,4-thiadiazol-5-yl)-5,6-dihydro-[1,2,4]triazolo[4,3-a]pyrazin-7(8H)-yl)methanone], which FSH secretion ([1]; 180 mg QD, women with PCOS) is on record?
The FSH secretion was “preserved”.

What about the LH ([1]; 180 mg QD, women with PCOS) of the same compound?
Its LH is “significant decrease”.

And the “LH:FSH in comparison of placebo” value ([1]; 180 mg QD, women with PCOS)?
Its value is “significantly reduced”.

What about the “TT in comparison of placebo” value ([1]; 180 mg QD, women with PCOS) of the same compound?
Its value is “significantly reduced”.

And the “Total Testosterone (mean)” value ([1]; Baseline, 180 mg QD group)?
The value was 2.16 nmol/L.

What about the “Total Testosterone (mean)” value ([1]; Week 6, 180 mg QD oral) of the same compound?
The value was 1.41 nmol/L.

And the “Total Testosterone (mean)” value ([1]; Week 12, 180 mg QD oral)?
Its value is 1.39 nmol/L.

And the Ki (human NK-2 receptor)?
Its Ki is over 30 µM.

And the “pyrogenic response to feeding” value [2]?
The value was “not observed”.

What about the “body temperature at the 12 h40 time point” value ([2]; after feeding at 12 h00, mean±SEM) of the same compound?
Its value is 38.9±0.2 °C.

What about the estradiol levels (plasma estradiol) of the same compound?
The estradiol levels was “significantly decreased”.

What about the “circulating LH levels” value [3] of the same compound?
Its value is “significantly suppressed”.
